Columns and labels:
GR [1] = target: T1, GR (Rattus norvegicus, UniProt P06536); assay: Luciferase assays, GR-responsive reporters, U2OS-GR cells; type: cell-based; conditions: pENaC-luc and pSV40-rl, with dex
T1 construct: expressed in transfected cells; host or cells: U2OS-GR
T1 sequence (P06536 1-795): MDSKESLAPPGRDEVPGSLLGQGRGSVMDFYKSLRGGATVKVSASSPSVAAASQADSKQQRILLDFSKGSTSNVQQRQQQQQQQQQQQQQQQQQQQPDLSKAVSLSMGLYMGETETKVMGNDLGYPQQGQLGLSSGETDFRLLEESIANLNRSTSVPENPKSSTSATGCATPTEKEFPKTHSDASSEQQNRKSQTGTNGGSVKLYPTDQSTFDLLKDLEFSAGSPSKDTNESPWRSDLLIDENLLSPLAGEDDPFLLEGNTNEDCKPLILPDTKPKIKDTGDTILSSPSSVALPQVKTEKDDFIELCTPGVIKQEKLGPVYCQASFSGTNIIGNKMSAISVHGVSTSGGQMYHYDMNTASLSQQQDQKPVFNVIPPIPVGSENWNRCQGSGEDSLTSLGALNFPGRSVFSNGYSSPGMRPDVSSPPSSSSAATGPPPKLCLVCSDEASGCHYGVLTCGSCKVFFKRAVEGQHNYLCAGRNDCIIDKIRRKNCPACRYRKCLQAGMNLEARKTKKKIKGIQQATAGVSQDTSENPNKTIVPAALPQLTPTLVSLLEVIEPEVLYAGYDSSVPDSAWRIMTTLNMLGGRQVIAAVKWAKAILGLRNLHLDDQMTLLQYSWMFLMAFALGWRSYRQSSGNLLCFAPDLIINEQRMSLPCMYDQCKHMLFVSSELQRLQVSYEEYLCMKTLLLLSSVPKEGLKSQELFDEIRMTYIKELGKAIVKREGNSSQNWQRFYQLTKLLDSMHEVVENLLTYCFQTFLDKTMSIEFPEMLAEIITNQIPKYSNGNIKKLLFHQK
Method: (§1) Transfections. The day prior to transfection, ˜3×10^5 cells were plated in 6-well dishes. Transfections used Lipofectamine 2000 (Invitrogen). 4 μg of total plasmid DNA were used for each transfection. For A549 cells, 500 μL of DNA/lipofectamine complex was added to 1.5 ml of DMEM with pen/strep and 5% FBS. For U2OS cells, 500 μl of DNA/lipofectamine complex was added to 1.5 ml of Optimem. After 3-4 hours of incubation, media was replaced with standard growth media.
(§2) Luciferase assays. Luciferase assays used the Promega Dual-Luciferase Reporter system. Briefly, cells were transfected with various firefly luciferase plasmids and pSV40-RL at a ratio of 10:1. The day after transfection, cells were split into 96-well dishes and treated with dex and various drugs. Cells were harvested in 50 μl 1XPLB (Promega) 12-18 hr after drug treatment and luciferase assays were performed on 10 μl of lysate. Luminscence was detected using an Ultra Evolution plate reader (Tecan).

GR [2] = target: T2, GR (Homo sapiens, UniProt P04150); assay: Luciferase assays, GR-responsive reporters, A549 cells; type: cell-based; set-up: endogenous in cells; host or cells: A549; conditions: for GR activity (GR-mediated induction of pENaC-luc reporter): pENaC-luc and pSV40-rl; for Dose dependent: whether the drug acted dose-dependently on GR-luciferase reporters
T2 sequence (P04150 1-777): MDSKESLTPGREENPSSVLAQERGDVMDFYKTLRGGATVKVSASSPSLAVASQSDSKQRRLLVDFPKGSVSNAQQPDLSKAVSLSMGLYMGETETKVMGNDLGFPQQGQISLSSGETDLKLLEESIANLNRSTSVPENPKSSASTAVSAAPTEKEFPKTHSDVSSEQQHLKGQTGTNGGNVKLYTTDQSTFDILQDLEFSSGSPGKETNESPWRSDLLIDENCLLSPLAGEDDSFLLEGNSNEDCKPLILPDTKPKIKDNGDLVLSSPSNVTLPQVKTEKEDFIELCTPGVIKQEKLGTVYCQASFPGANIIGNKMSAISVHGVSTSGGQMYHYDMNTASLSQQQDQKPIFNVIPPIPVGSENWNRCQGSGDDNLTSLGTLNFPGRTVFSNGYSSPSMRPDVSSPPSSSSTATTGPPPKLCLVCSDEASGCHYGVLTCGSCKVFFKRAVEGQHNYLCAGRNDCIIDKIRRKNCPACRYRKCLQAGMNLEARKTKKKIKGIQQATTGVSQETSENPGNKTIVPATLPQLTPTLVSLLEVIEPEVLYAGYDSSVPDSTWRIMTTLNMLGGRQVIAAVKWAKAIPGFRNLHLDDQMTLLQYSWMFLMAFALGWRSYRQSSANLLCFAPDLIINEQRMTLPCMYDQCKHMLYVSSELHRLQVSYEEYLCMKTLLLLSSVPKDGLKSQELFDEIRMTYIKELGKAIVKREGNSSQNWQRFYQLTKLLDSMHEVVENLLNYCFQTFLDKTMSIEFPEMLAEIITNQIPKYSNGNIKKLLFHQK
Method: as §1, §2

[3] = test system: genes that are regulated by glucocorticoids; assay: In vivo screening: qPCR of glucocorticoid-regulated genes in mouse tissues; conditions: mice, 7.5 mg/kg aclacinomycin, one hour later 2.5 mg/kg dexamethasone, tissues after 6 hours
Method: Mice were injected with 7.5 mg/kg aclacinomycin. One hour later, mice were injected with 2.5 mg/kg dexamethasone. After 6 hours, lungs, liver, heart and skeletal muscle were harvested for RNA preparation. qPCR was performed on isolated RNA from these tissues to analyze expression levels of various genes that are regulated by glucocorticoids.

GR [4] = target: T2, GR; assay: Multi-promoter fluorescent protein reporter compound screen for GR modulators; type: cell-based; set-up: endogenous in cells; host or cells: A549; conditions: A549 cells, library compounds 2.5 μM with dex 100 nM; reporter fluorescence relative to plate mean
Method: Compound Screen. A549 cells were transfected with an equal mixture of pENaC-CFP, pGILZ-YFP, pFKBP5-OFP (1.3 μg each), or with pSV40-ChFP (4 μg). The next day, cells were mixed (˜1.8×10^4 of the cells triple-transfected with pENaC-CFP, pGILZ-YFP, pFKBP5-OFP; ˜2×10^3 cells transfected with pSV40-ChFP) and replated into 96 well plates (Costar 3603). 2 hours later, library compounds (2.5 μM) and dex (100 nM) were added using a Biomek robot. The following day, cells were fixed for 4 minutes in 4% paraformaldehyde and fluorescence was measured sequentially for each reporter using a Safire plate reader (Tecan). Hits were scored based on the mean and standard deviation (s.d.) of the experimental wells on each plate. Criteria for a hit were if one reporter was more than 1.5×s.d. from the mean in duplicate, or if two reporters were more than 0.8×s.d. from the mean in duplicate. If the control SV40-ChFP was more than 2×s.d. from the mean in a single plate, or 0.8×s.d. in duplicate plates (in the same direction as the GR reporters), the well was not scored as a hit.
We used the system of Example 1 to screen a library of 1040 natural products and FDA-approved drugs for modulators of GR signaling (Abbott, A. Nature 417:109). The screen design is outlined in FIG. 2. The pENaC-CFP, pGILZ-YFP, and pFKBP5-OFP reporters indicated GR signaling, while pSV40-mCh, an internal control, excluded non-specific transcription inhibitors and toxins. We screened the library in duplicate in the presence of saturating dex (100 nM). Z′, a function that reflects the ability to discriminate between control and experimental wells (Zhang, J. H. et al., J Biomol Screen 4:67-73 (1999)), was determined for dex treatment of each GR reporter. The Z′ values were: Z′(ENAC-CFP)=0.68; Z′(GILZ-YFP)=0.64; and Z′(FKBP5-OFP)=0.66. These indicate that the screen should efficiently identify compounds that increase or decrease fluorescence from any of the three experimental promoters (Zhang, J. H. et al., J Biomol Screen 4:67-73 (1999)).

GR [5] = target: T2, GR; assay: qPCR of endogenous GR target genes, A549 cells; type: cell-based; set-up: endogenous in cells; host or cells: A549; conditions: with dex, RPL19 reference
Excerpt: (§3) Quantitative PCR. Total RNA isolation used Trizol and Pure Link (Invitrogen). […] Rpl19 expression was used for data normalization.

GR [6] = assay: qPCR of endogenous GR target genes, cell line not distinguished (FIG. 4B, 5D); type: cell-based; conditions: with dex, 24 hr
Excerpt: as §3

androgen receptor (AR) = androgen receptor (AR) (Homo sapiens, UniProt P10275); conditions: Hieronymus et al., Cancer Cell 10:321-330 (2006); cited from earlier work
androgen receptor (AR), sequence (P10275 whole entry, species assumed): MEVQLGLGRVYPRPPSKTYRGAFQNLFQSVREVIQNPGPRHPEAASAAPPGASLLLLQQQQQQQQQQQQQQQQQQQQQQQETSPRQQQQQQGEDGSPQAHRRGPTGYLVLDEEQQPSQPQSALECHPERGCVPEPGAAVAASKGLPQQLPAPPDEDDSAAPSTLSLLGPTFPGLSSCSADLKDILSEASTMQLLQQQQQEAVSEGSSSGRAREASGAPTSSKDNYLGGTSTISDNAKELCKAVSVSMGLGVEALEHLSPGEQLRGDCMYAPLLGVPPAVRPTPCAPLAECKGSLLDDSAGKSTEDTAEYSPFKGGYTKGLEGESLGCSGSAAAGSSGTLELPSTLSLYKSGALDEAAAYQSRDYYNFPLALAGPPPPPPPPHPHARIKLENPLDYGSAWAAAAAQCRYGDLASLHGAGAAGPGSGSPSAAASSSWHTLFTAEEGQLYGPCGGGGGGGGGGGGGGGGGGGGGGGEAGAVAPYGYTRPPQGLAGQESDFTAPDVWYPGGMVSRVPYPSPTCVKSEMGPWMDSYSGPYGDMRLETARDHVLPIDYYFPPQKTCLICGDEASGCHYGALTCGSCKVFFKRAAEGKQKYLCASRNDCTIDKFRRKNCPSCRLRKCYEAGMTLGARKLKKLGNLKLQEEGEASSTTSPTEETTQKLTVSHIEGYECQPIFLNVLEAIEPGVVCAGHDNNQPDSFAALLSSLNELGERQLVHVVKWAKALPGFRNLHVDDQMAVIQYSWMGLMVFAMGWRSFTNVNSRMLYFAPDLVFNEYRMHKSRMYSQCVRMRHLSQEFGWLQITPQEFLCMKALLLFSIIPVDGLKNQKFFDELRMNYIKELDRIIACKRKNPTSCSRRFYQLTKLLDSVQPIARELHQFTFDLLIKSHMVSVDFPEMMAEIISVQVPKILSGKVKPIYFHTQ

RNA synthesis = conditions: Long et al., Mol Pharmacol 22:152-7 (1982); cited from earlier work

In the case of `CC[C@@]1(O)C[C@H](O[C@H]2C[C@H](N(C)C)[C@H](O[C@H]3C[C@H](O)[C@H](O[C@H]4CCC(=O)[C@H](C)O4)[C@H](C)O3)[C@H](C)O2)c2c(cc3c(c2O)C(=O)c2c(O)cccc2C3=O)[C@H]1C(=O)OC` [Aclacinomycin], the “GR activity (luciferase reporter)” value (GR [1]) is reported as “inhibited GR”, the pSV40-luc activity (GR [2]; A549 cells, low doses of Acl, dex-unresponsive reporter) is reported as “Increases” and the “GR activity (GR-mediated induction of pENaC-luc reporter)” value (GR [2]; A549 cells, with dex) is reported as “antagonists of GR”. The “effect on GR-dependent reporter pENaC-luc compared with GR-independent constitutive reporter pSV40-rl” value (GR [2]; A549 cells, with dex) was “reduced GR activation of pENaC-luc much more than the constitutive reporter”, the Dose dependent (GR [2]) was “yes” and the “activation of FKBP5 by dexamethasone” value ([3]; liver and lung (FIGS. 6-7)) was “blocked the activation”. For the same compound, the “activation of KLF15 by dexamethasone” value ([3]; lung (FIG. 8)) was “blocked the activation”, the “repression of the cytokine CCL2 by dexamethasone” value ([3]; lung (FIG. 9)) was “did not inhibit repression” and the ENaC-CFP (GR [4]) was “↓↓↓^b (more than 2 standard deviations (s.d.) less than the mean (↓↓↓))”. For the same compound, the FKBP5-OFP (GR [4]) was “↓↓↓ (more than 2 standard deviations (s.d.) less than the mean (↓↓↓))”, the GILZ-YFP (GR [4]) was “↓↓↓ (more than 2 standard deviations (s.d.) less than the mean (↓↓↓))” and the “expression of endogenous GR target genes (relative mRNA, qPCR)” value (GR [5]) was “inhibited GR at the tested promoters”.

With `CC[C@@]1(O)C[C@H](O[C@H]2C[C@H](N(C)C)[C@H](O[C@H]3C[C@@H]4O[C@H]5CC(=O)[C@H](C)O[C@H]5O[C@@H]4[C@H](C)O3)[C@H](C)O2)c2c(cc3c(c2O)C(=O)c2c(O)ccc(O)c2C3=O)[C@H]1C(=O)OC` [Cin B, Cinerubin (Cin) B] the “GR activity (GR-mediated induction of pENaC-luc reporter)” value (GR [2]; A549 cells, with dex) was “potently inhibited GR activity” and the “expression of endogenous GR target genes (relative mRNA, qPCR)” value (GR [5]) was “inhibited GR at the tested promoters”.

With `N=C1C=CC(=C(c2ccc(N)cc2)c2ccc(N)cc2)C=C1` [Pararosaniline] the Dose dependent (GR [2]) was “yes”, the Dose dependent (GR [2]; listed as pararosaniline) was “dose dependent effects” and the “expression of endogenous GR target genes (qPCR), overall” value (GR [6]) was “selectively modulated endogenous GR target genes”. For the same compound, the “induction of endogenous ENaC (qPCR)” value (GR [6]) was “selectively inhibited the induction of endogenous ENaC transcription in comparison to FKBP5”, the “androgen receptor (AR) signaling” value (androgen receptor (AR)) was “inhibit” and the ENaC-CFP (GR [4]) was “↓ (0.8 to 2 s.d. less than the mean (↓))”. For the same compound, the FKBP5-OFP (GR [4]) was “No effect” and the GILZ-YFP (GR [4]) was “↓ (0.8 to 2 s.d. less than the mean (↓))”.

For `CC[C@@]1(O)C[C@H](O[C@H]2C[C@H](N(C)C)[C@H](O[C@H]3C[C@H](O)[C@H](O[C@H]4C[C@H](O)[C@H](O)[C@H](C)O4)[C@H](C)O3)[C@H](C)O2)c2c(cc3c(c2O)C(=O)c2c(O)ccc(O)c2C3=O)[C@H]1C(=O)OC` [marcellomycin], the “GR activity (GR-mediated induction of pENaC-luc reporter)” value (GR [2]; A549 cells, with dex) is given as “no impact on GR-mediated induction of the reporter” and the “IC50 for inhibition of RNA synthesis, compared with aclacinomycin” value (RNA synthesis) is given as “similar”.

— patent US8940705B2, “Method of treating disease and selectively modulating transcriptional regulation by a glucocorticoid receptor by administering aclacinomycin and dexamethasone” (The Regents of the University of California, priority 2009, dated 2015)
